From US9491960B2, “Sweetener” (Tate & Lyle Ingredients Americas LLC, priority 2013, dated 2016)
Like-named read-outs stand apart in the source and are kept apart here. Marks after values point to notes of the source that are not given here.

Assays:
[1] = Round table sensory evaluation by test panelists: sucrose equivalent value (SEV) against sucrose reference samples; type: in vivo; conditions: for Sweetness (mean SEV, Duncan grouping) / Sweetness (mean SEV, two-way ANOVA, level of significance Duncan): 10 SEV solutions in neutral pH water; for Sweetness (mean SEV, Duncan grouping): level of significance for the grouping (Duncan): 5%; for Sweetness (mean SEV, two-way ANOVA, level of significance Duncan): superscripts = Duncan level of significance; for Mean 1 (mean sucrose equivalent value, SEV) / Median 1 (median sucrose equivalent value, SEV): equal sweet 10 SEV concentrations in neutral pH water, references 4%-14% sucrose, room temperature
Experimental: Round table evaluations were performed with test panelists. Equal sweet 10 SEV concentrations in neutral pH water were made for allulose, fructose and sucralose, as well as a composition comprising allulose, fructose and sucralose. The components of the test compositions are described in the below tables. The mixed compositions were calculated using the Beidler mixture equation for the sweeteners. The Beidler mixture equation for sweeteners is as follows: […]
The concentration of each component in the mixture in ppm is divided by SEV (c/R) and is plotted against concentration, c. The slope of the linear regression is the maximum SEV (Rmax). The y-intercept of the linear regression multiplied by Rmax is the half-maximal sweetness concentration, 1/K. Rmax and 1/K are the two parameters used in the Beidler equation.
The equal-molar mixture was tested against reference samples for the panelists to determine SEV values. […] The test samples were served in 2 ounce (approximately 60 ml) soufflé cups coded with 3-digit codes at room temperature. A two minute wait period between samples was enforced. Water and unsalted crackers was available for the panelists to clear their palates before and during testing. EyeQuestion, software distributed by Logic8 BV of Elst, The Netherlands, was used for ballot development and recording of results. Results were collected in EyeQuestion for calculating approximate SEV level of each test sample. The test products analyzed in this experiment are described below in Table 1.

[2] = cited from earlier work

## O=C(CO)C(O)C(O)C(O)CO (centres unmarked) [Allulose, allulose]
[1]
  Sweetness (mean SEV, Duncan grouping): 10.14^b-c
  Sweetness (mean SEV, two-way ANOVA, level of significance Duncan): 10.14
  Mean 1 (mean sucrose equivalent value, SEV): 10.14
  Median 1 (median sucrose equivalent value, SEV): 10
[2]; % of the sweetness of sucrose
  Sweetness relative to sucrose: around 70%

## O=C(CO)[C@@H](O)[C@H](O)[C@H](O)CO [Fructose, fructose]
[1]
  Sweetness (mean SEV, Duncan grouping): 10.14^b-c
  Sweetness (mean SEV, two-way ANOVA, level of significance Duncan): 10.14
  Mean 1 (mean sucrose equivalent value, SEV): 10.14
  Median 1 (median sucrose equivalent value, SEV): 10

## sucralose
[1]
  Sweetness (mean SEV, Duncan grouping): 9.29^c
  Sweetness (mean SEV, two-way ANOVA, level of significance Duncan): 9.29
  Mean 1 (mean sucrose equivalent value, SEV): 9.286
  Median 1 (median sucrose equivalent value, SEV): 10
[2]; times as sweet as sucrose
  Sweetness relative to sucrose: approximately 600 times
